ChEMBL document CHEMBL3525928 (Drug Metab Dispos, 2011)

Legend:
Assay type in all cases: ADME, cell-based
[1] = target: T1, OATP1B3 (Homo sapiens, UniProt Q9NPD5); test: Drug uptake ratio assessed as enzyme-mediated uptake in HEK293 cells expressing human OATP1B3 at 10 uM at 37 degC for 3 mins cells pretreated with sodium butyrate by liquid scintillation spectroscopy relative to wild type
T1 sequence (Q9NPD5 whole entry): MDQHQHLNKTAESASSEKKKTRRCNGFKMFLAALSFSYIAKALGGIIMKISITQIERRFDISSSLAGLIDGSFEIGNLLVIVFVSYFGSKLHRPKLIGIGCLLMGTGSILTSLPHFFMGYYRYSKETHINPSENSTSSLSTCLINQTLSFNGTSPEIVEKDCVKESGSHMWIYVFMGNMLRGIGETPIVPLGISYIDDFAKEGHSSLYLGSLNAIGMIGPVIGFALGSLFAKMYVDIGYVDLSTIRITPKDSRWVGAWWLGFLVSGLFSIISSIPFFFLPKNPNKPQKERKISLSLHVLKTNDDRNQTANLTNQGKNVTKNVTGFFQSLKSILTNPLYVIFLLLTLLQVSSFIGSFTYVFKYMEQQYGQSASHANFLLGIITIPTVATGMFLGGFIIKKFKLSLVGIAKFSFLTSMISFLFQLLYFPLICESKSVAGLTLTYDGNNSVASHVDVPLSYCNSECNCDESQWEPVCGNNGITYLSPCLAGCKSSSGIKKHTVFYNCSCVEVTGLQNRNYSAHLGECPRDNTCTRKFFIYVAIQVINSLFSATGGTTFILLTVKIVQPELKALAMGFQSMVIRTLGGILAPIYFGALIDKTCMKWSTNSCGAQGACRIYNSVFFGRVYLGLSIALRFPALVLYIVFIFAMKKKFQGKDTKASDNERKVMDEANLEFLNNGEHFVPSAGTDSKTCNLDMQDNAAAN

[2] = target: T1, OATP1B3; test: Drug uptake ratio assessed as enzyme-mediated uptake in HEK293 cells expressing human OATP1B3 at 1 uM at 37 degC for 3 mins cells pretreated with sodium butyrate by liquid scintillation spectroscopy relative to wild type
[3] = target: T2, OATP1B1 (Homo sapiens, UniProt Q9Y6L6); test: Drug uptake ratio assessed as enzyme-mediated uptake in HEK293 cells expressing human OATP1B1 at 10 uM at 37 degC for 3 mins by liquid scintillation spectroscopy relative to wild type
T2 sequence (Q9Y6L6 whole entry): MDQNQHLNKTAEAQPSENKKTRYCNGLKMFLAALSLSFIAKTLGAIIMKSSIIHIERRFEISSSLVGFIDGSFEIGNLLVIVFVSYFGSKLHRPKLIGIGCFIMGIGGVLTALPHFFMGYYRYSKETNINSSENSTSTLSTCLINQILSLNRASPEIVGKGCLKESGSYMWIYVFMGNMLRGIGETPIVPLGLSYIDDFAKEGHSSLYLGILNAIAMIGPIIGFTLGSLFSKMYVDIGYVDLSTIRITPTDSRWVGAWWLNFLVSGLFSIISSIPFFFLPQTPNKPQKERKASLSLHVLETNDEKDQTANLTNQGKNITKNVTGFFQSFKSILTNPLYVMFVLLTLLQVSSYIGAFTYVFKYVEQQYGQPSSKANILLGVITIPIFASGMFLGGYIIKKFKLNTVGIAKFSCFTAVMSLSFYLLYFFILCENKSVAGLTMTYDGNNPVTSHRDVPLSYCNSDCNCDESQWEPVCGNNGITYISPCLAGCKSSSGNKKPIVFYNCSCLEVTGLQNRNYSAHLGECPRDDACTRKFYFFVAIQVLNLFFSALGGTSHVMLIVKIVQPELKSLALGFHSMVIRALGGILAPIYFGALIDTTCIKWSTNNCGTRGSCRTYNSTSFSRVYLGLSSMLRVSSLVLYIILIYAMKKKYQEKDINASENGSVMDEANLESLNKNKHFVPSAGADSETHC

[4] = target: T3, OATP2B1 (Homo sapiens, UniProt O94956); test: Drug uptake ratio assessed as enzyme-mediated uptake in HEK293 cells expressing human OATP2B1 at 10 uM at 37 degC for 3 mins by liquid scintillation spectroscopy relative to wild type
T3 sequence (O94956 whole entry): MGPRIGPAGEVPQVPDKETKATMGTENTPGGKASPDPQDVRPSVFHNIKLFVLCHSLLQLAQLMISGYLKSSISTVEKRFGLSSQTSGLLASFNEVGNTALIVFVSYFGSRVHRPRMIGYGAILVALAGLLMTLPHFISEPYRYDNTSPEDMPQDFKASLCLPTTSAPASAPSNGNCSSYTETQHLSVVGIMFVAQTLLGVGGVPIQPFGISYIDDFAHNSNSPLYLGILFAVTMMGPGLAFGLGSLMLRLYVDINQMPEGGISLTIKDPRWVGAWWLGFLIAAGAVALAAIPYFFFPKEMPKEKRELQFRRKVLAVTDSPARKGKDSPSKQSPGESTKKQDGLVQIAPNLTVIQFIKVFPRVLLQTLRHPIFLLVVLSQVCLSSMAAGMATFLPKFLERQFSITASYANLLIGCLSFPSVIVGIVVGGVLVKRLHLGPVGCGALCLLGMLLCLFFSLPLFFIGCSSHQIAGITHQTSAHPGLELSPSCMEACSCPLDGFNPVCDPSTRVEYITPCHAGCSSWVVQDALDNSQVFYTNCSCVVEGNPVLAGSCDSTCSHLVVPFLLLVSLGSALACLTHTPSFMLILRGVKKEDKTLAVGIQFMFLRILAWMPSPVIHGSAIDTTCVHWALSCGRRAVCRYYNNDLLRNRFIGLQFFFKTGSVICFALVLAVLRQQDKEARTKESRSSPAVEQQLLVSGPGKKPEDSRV

[5] = target: T1, OATP1B3; test: Drug uptake ratio assessed as enzyme-mediated uptake in HEK293 cells expressing human OATP1B3 at 10 uM at 37 degC for 3 mins by liquid scintillation spectroscopy relative to wild type
[6] = target: T3, OATP2B1; test: Drug uptake ratio assessed as enzyme-mediated uptake in HEK293 cells expressing human OATP2B1 at 1 uM at 37 degC for 3 mins by liquid scintillation spectroscopy relative to wild type
[7] = target: T2, OATP1B1; test: Drug uptake ratio assessed as enzyme-mediated uptake in HEK293 cells expressing human OATP1B1 at 1 uM at 37 degC for 3 mins by liquid scintillation spectroscopy relative to wild type
[8] = target: T1, OATP1B3; test: Drug uptake ratio assessed as enzyme-mediated uptake in HEK293 cells expressing human OATP1B3 at 1 uM at 37 degC for 3 mins by liquid scintillation spectroscopy relative to wild type

Compound	uptake ratio at 0.05 h, 10 µM [1]	uptake ratio at 0.05 h, 1 µM [2]	uptake ratio at 0.05 h, 10 µM [3]	uptake ratio at 0.05 h, 10 µM [4]	uptake ratio at 0.05 h, 10 µM [5]	uptake ratio at 0.05 h, 1 µM [6]	uptake ratio at 0.05 h, 1 µM [7]	uptake ratio at 0.05 h, 1 µM [8]
CC(C)c1nc(N(C)S(C)(=O)=O)nc(-c2ccc(F)cc2)c1/C=C/[C@@H](O)C[C@@H](O)CC(=O)O [ROSUVASTATIN]	25	16	1.9	6.3	39	6	3.4	35
C[C@]12CC[C@@H]3c4ccc(O)cc4CC[C@H]3[C@@H]1CC[C@@H]2O[C@@H]1O[C@H](C(=O)O)[C@@H](O)[C@H](O)[C@H]1O [ESTRADIOL 17B GLUCURONIDE]	78	74	–	–	116	–	–	87
Cc1ncc2n1-c1ccc(Cl)cc1C(c1ccccc1F)=NC2 [MIDAZOLAM]	1.9	2.1	0.92	–	1.7	–	0.92	1.7
